Data on 24 molecules can be found in patent publication US12319676B2, “Substituted amide compounds useful as farnesoid X receptor modulators” (BRISTOL-MYERS SQUIBB COMPANY, priority 2019, dated 2025).

For the test, the target named is T1, human FXR (Homo sapiens, UniProt Q96RI1).
T1 construct: expressed in transfected cells; host or cells: HEK293 cells stably carrying a 5xGal4 response element-luciferase reporter, transiently transfected with pcDNA3.1-Gal4-FXR
T1 sequence (Q96RI1 262-486 limits assumed): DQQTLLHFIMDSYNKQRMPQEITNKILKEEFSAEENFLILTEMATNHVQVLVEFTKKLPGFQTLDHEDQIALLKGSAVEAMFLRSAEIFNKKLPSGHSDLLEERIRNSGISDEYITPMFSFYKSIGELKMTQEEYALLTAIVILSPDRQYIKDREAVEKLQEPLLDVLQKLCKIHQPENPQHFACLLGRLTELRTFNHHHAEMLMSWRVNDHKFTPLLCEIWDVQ
Put plainly: transient human FXR/Gal4-luciferase reporter assay. It counts as cell-based. To be noted: Gal4-hFXR fusion construct, luciferase reporter in HEK293 cells; overnight incubation; response as percentage of 8 μM GW-4064 control. Put shortly: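 HEK293 cells stably carrying a 5×Gal4-response-element firefly luciferase reporter were transiently transfected with a Gal4 DBD-human FXR LBD fusion, then treated overnight with compounds at 37 °C. Steady-Glo luminescence, minus DMSO background, was expressed as percent of the response to 8 μM GW-4064.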
A general note: In a reporter assay the amount or activity of a reporter protein is the signal.
In the case of `CC(C)(C)c1noc(C23CCC(CN(C(=O)C4CC(F)(F)C4)c4cccc(C#N)c4)(CC2)CC3)n1` [Example 41, N-((4-(3-(tert-butyl)-1,2,4-oxadiazol-5-yl)bicyclo[2.2.2]octan-1-yl)methyl)-N-(3-cyanophenyl)-3,3-difluorocyclobutane-1-carboxamide], a half-maximal effect (EC50) was put at 171 nM. The same measure for `CC(C)Oc1cccc(N(CC23CCC(c4nc(C(C)(C)C)no4)(CC2)CC3)C(=O)C23CC(F)(C2)C3)c1` [Example 124, N-((4-(3-(tert-butyl)-1,2,4-oxadiazol-5-yl)bicyclo[2.2.2]octan-1-yl)methyl)-3-fluoro-N-(3-isopropoxyphenyl)bicyclo[1.1.1]pentane-1-carboxamide]: 2000 nM; for `CC(C)(C)c1noc(C23CCC(CN(C(=O)C45CC(F)(C4)C5)c4ccc(F)c(C(N)=O)c4)(CC2)CC3)n1` [Example 121, N-((4-(3-(tert-butyl)-1,2,4-oxadiazol-5-yl)bicyclo[2.2.2]octan-1-yl)methyl)-N-(3-carbamoyl-4-fluorophenyl)-3-fluorobicyclo[1.1.1]pentane-1-carboxamide]: 412 nM; for `CC(C)(C)c1nc(C23CCC(CN(C(=O)C45CC(F)(C4)C5)c4cccc(Nc5ccc(OC(F)F)cn5)c4)(CC2)CC3)no1` [Example 104, N-((4-(5-(tert-butyl)-1,2,4-oxadiazol-3-yl)bicyclo[2.2.2]octan-1-yl)methyl)-N-(3-((5-(difluoromethoxy)pyridin-2-yl)amino)phenyl)-3-fluorobicyclo[1.1.1]pentane-1-carboxamide]: 221 nM. Under `Cn1nc(C2CC2)cc1C12CCC(CN(C(=O)C3CCC(F)(F)CC3)c3cccc(C#N)c3)(CC1)CC2` [Example 73, N-(3-cyanophenyl)-N-((4-(3-cyclopropyl-1-methyl-1H-pyrazol-5-yl)bicyclo[2.2.2]octan-1-yl)methyl)-4,4-difluorocyclohexane-1-carboxamide] stands 2130 nM.

On to `CC(F)(F)c1nc(C23CCC(CN(C(=O)C4CCC(F)(F)CC4)c4cccc(Cl)c4)(CC2)CC3)no1` [Example 3, N-(3-chlorophenyl)-N-((4-(5-(1,1-difluoroethyl)-1,2,4-oxadiazol-3-yl)bicyclo[2.2.2]octan-1-yl)methyl)-4,4-difluorocyclohexane-1-carboxamide], for which the response was half-maximal at 133 nM (EC50). On to `CS(=O)(=O)Nc1cccc(N(CC23CCC(c4nc(C5CC5)no4)(CC2)CC3)C(=O)C2CC(F)(F)C2)c1` [Example 65, N-((4-(3-cyclopropyl-1,2,4-oxadiazol-5-yl)bicyclo[2.2.2]octan-1-yl)methyl)-3,3-difluoro-N-(3-(methylsulfonamido)phenyl)cyclobutane-1-carboxamide], for which the EC50 – broadly, the concentration that produces a half-maximal response – was found to be 1280 nM. On to `CCOc1cccc(N(CC23CCC(c4nc(C5CC5)no4)(CC2)CC3)C(=O)C2CCOCC2)c1` [Example 55, N-((4-(3-cyclopropyl-1,2,4-oxadiazol-5-yl)bicyclo[2.2.2]octan-1-yl)methyl)-N-(3-ethoxyphenyl)tetrahydro-2H-pyran-4-carboxamide], for which the EC50 stood at 320 nM.

Turning to `CC(F)(F)c1ccc(C23CCC(CN(C(=O)C45CC(F)(C4)C5)c4cccc(Br)c4)(CC2)CC3)nc1` [Example 48, N-(3-bromophenyl)-N-((4-(5-(1,1-difluoroethyl)pyridin-2-yl)bicyclo[2.2.2]octan-1-yl)methyl)-3-fluorobicyclo[1.1.1]pentane-1-carboxamide], the EC50 turned out to be 288 nM.

Regarding `COC(=O)COc1cccc(N(CC23CCC(c4ccc(N(C)C)cc4)(CC2)CC3)C(=O)C2CCCCC2)c1` [Example 80, Methyl 2-(3-(N-((4-(4-(dimethylamino)phenyl)bicyclo[2.2.2]octan-1-yl)methyl)cyclohexanecarboxamido)phenoxy) acetate], it took 1600 nM to reach a half-maximal effect (EC50). Under `CS(=O)(=O)Nc1cccc(N(CC23CCC(c4nc(C5CC5)no4)(CC2)CC3)C(=O)[C@H]2C[C@](O)(C(F)(F)F)C2)c1` [Example 67, (1S,3S)-N-((4-(3-cyclopropyl-1,2,4-oxadiazol-5-yl)bicyclo[2.2.2]octan-1-yl)methyl)-3-hydroxy-N-(3-(methylsulfonamido)phenyl)-3-(trifluoromethyl)cyclobutane-1-carboxamide] stands 4000 nM. As to `CC(C)(C)c1noc(C23CCC(CN(C(=O)C45CC(F)(C4)C5)c4cccc(P(C)(C)=O)c4)(CC2)CC3)n1` [Example 43, N-((4-(3-(tert-butyl)-1,2,4-oxadiazol-5-yl)bicyclo[2.2.2]octan-1-yl)methyl)-N-(3-(dimethylphosphoryl)phenyl)-3-fluorobicyclo[1.1.1]pentane-1-carboxamide], the EC50 worked out at 4000 nM. `N#CC1(c2ccc(Nc3cccc(N(CC45CCC(c6noc(C7(F)CC7)n6)(CC4)CC5)C(=O)[C@H]4C[C@](O)(C(F)(F)F)C4)c3)cc2)CC1` [Example 91, (1S,3S)—N-(3-((4-(1-cyanocyclopropyl)phenyl)amino)phenyl)-N-((4-(5-(1-fluorocyclopropyl)-1,2,4-oxadiazol-3-yl)bicyclo[2.2.2]octan-1-yl)methyl)-3-hydroxy-3-(trifluoromethyl)cyclobutane-1-carboxamide]: the EC50 was 2190 nM. Consider `CC(F)(F)c1nc(C23CCC(CN(C(=O)C4CCC(F)(F)CC4)c4cccc(F)c4)(CC2)CC3)no1` [Example 9, N-((4-(5-(1,1-difluoroethyl)-1,2,4-oxadiazol-3-yl)bicyclo[2.2.2]octan-1-yl)methyl)-4,4-difluoro-N-(3-fluorophenyl)cyclohexane-1-carboxamide], for which it took 451 nM to reach a half-maximal effect (EC50). As to `CC(F)(F)c1nc(C23CCC(CN(C(=O)C4CCC(F)(F)CC4)c4ccc(F)c(F)c4)(CC2)CC3)no1` [Example 11, N-((4-(5-(1,1-difluoroethyl)-1,2,4-oxadiazol-3-yl)bicyclo[2.2.2]octan-1-yl)methyl)-N-(3,4-difluorophenyl)-4,4-difluorocyclohexane-1-carboxamide], the EC50 stood at 881 nM. With `CC(C)(C)c1noc(C23CCC(CN(C(=O)C45CC(F)(C4)C5)c4cncc(C#N)c4)(CC2)CC3)n1` [Example 94, N-((4-(3-(tert-butyl)-1,2,4-oxadiazol-5-yl)bicyclo[2.2.2]octan-1-yl)methyl)-N-(5-cyanopyridin-3-yl)-3-fluorobicyclo[1.1.1]pentane-1-carboxamide], the EC50 worked out at 1320 nM.

`CNS(=O)(=O)c1cccc(N(CC23CCC(c4noc(C(C)(F)F)n4)(CC2)CC3)C(=O)[C@H]2C[C@](O)(C(F)(F)F)C2)c1` [Example 22, (1S,3S)-N-((4-(5-(1,1-difluoroethyl)-1,2,4-oxadiazol-3-yl)bicyclo[2.2.2]octan-1-yl)methyl)-3-hydroxy-N-(3-(N-methylsulfamoyl)phenyl)-3-(trifluoromethyl)cyclobutane-1-carboxamide] displayed an EC50 of 4000 nM.

`N#Cc1cc(F)cc(N(CC23CCC(c4nc(C5CC5)no4)(CC2)CC3)C(=O)[C@H]2C[C@](O)(C(F)(F)F)C2)c1` [Example 63, (1S,3S)-N-(3-cyano-5-fluorophenyl)-N-((4-(3-cyclopropyl 1,2,4-oxadiazol-5-yl)bicyclo[2.2.2]octan-1-yl)methyl)-3-hydroxy-3-(trifluoromethyl)cyclobutane-1-carboxamide] displayed a 50% effective concentration (EC50) of 1050 nM. In the case of `CC(F)(F)c1nc(C23CCC(CN(C(=O)C4CCC(F)(F)CC4)c4cccc(C(F)(F)F)c4)(CC2)CC3)no1` [Example 16, N-((4-(5-(1,1-difluoroethyl)-1,2,4-oxadiazol-3-yl)bicyclo[2.2.2]octan-1-yl)methyl)-4,4-difluoro-N-(3-(trifluoromethyl)phenyl)cyclohexane-1-carboxamide], a half-maximal effect (EC50) was put at 315 nM. Under `CC(F)(F)c1nc(C23CCC(CN(c4cccc(P(C)(C)=O)c4)C(=O)[C@H]4C[C@](O)(C(F)(F)F)C4)(CC2)CC3)no1` [Example 26, (1S,3S)-N-((4-(5-(1,1-difluoroethyl)-1,2,4-oxadiazol-3-yl)bicyclo[2.2.2]octan-1-yl)methyl)-N-(3-(dimethylphosphoryl)phenyl)-3-hydroxy-3-(trifluoromethyl)cyclobutane-1-carboxamide] stands 4000 nM; under `COc1cccc(N(CC23CCC(c4nc(C5CC5)no4)(CC2)CC3)C(=O)C2CCS(=O)(=O)CC2)c1` [Example 61, N-((4-(3-cyclopropyl-1,2,4-oxadiazol-5-yl)bicyclo[2.2.2]octan-1-yl)methyl)-N-(3-methoxyphenyl)tetrahydro-2H-thiopyran-4-carboxamide 1,1-dioxide], 4000 nM.

As for `Cn1nc(C2CC2)cc1C12CCC(CN(C(=O)C34CC(F)(C3)C4)c3cccc(C#N)c3)(CC1)CC2` [Example 72, N-(3-cyanophenyl)-N-((4-(3-cyclopropyl-1-methyl-1H-pyrazol-5-yl)bicyclo[2.2.2]octan-1-yl)methyl)-3-fluorobicyclo[1.1.1]pentane-1-carboxamide], the EC50 was 993 nM. `CC(F)(F)c1ccc(C23CCC(CN(c4cccc(C#N)c4)C(=O)[C@H]4C[C@@](C)(O)C4)(CC2)CC3)nc1` [Example 50, (1S,3S)-N-(3-cyanophenyl)-N-((4-(5-(1,1-difluoroethyl)pyridin-2-yl)bicyclo[2.2.2]octan-1-yl)methyl)-3-hydroxy-3-methylcyclobutane-1-carboxamide] displayed an EC50 of 1190 nM.

`CC(F)(F)c1nc(C23CCC(CN(C(=O)C4CCS(=O)(=O)CC4)c4cc(F)cc(C#N)c4)(CC2)CC3)no1` [Example 138, N-(3-cyano-5-fluorophenyl)-N-((4-(5-(1,1-difluoroethyl)-1,2,4-oxadiazol-3-yl)bicyclo[2.2.2]octan-1-yl)methyl)tetrahydro-2H-thiopyran-4-carboxamide 1,1-dioxide] showed an EC50 of 4000 nM.
